Test results published in US20070166336A1, “Stable and palatable oral liquid sumatriptan compositions” (priority 2005, published 2007).
Where two headings read alike, the source gives them in different places. Values belong to the molecule of their own block, whether it stands above or below them.

Key:
[1] = pH 5
Procedure: The percent of sumatriptan recovered, i.e., the experimentally determined amount (mg/mL) of sumatriptan divided by the theoretical amount present at each stage, is also provided.
The final stage of the excipient screen was used to establish a compatible preservative. […] Specifically, Stage II samples were removed and split into two tubes each containing 2.5 mL and the remaining solution kept as a control. […] These solutions were then stored at 50° C. for one month and periodically analyzed by HPLC.
The stability and solubility of sumatriptan compositions in acetate buffer with the preservative was also tested. These samples were mixed in a 1:1 ratio.

[2] = Formulation at different pH: impurities after two weeks at 50° C.; type: physicochemical; conditions: unbuffered (self-buffering)
Procedure: Sumatriptan succinate has a self-buffering capacity due to it being a succinic acid salt.
These formulations were kept on stability studies at 50° C. for two weeks.
Levels of each impurity are expressed as percentage (w/w) of sumatriptan, and RT is the retention time in minutes.

[3] = Stability of sumatriptan succinate in water and buffers of pH 2, 5, 7, 9 (HPLC); type: physicochemical; conditions: buffers with a pH of about 2 to 5, one month at 50° C. (additional studies not presented)
Procedure: After mixing thoroughly, a 1 mL aliquot was removed for high performance liquid chromatography (HPLC) analysis. The remaining volume was then split into a glass tube to be kept at room temperature, and another glass tube to be kept at 50° C. Samples were pulled periodically from the 50° C. tubes for one month and analyzed by HPLC.
As used herein, degradation in percent area by area is that amount of degradation that is the ratio of the sum total of degradation peaks divided by the response factor (sumatriptan's standard curve slope value) multiplied by 100, and not a quantified amount of degradation.

[4] = Characterization of unknown oxidation impurity (LC-MS, HPLC); type: physicochemical
Procedure: HPLC conditions were the same as that for impurity C and D analysis, and the product peaks were injected into an electrospray ionization mass spectrometer.
To confirm whether oxidation of sumatriptan would lead to the formation of this impurity, sumatriptan succinate was incubated with 25% H2O2 for 2 hours and 24 hours followed by LC-MS analysis.
To test the presence of this impurity in sumatriptan succinate procured from different vendors, solid sumatriptan in powder form as well as sumatriptan dissolved in water were analyzed by HPLC.

[5] = cited from earlier work
physchem = conditions: thermodynamic from solid
Procedure: By apparent solubility is meant the solubility of the sumatriptan determined visually. The materials used were sumatriptan succinate and various reagents for preparation of the buffers. Hydrochloric acid was used for preparation of the pH 2 buffer, acetate for preparation of the pH 5 buffer, phosphate for preparation of the pH 7 buffer, and carbonate for the pH 9 buffer. The concentration of the buffers was 0.1 M.
A 1 mL aliquot of each buffer was placed in a glass scintillation vial. To this volume was added a small amount of sumatriptan. Each amount of sumatriptan was weighed on a balance. Weights typically ranged from between 5 and 35 mg. After each new addition of sumatriptan, the vial was shaken and visually inspected to determine if all of the sumatriptan was in solution. When small particles of undissolved sumatriptan appeared, no further amount of sumatriptan was added. These amounts of sumatriptan added before the final addition was added together and were listed as the lower limit of each pH. The upper limit of solubility was taken to be the sum total of sumatriptan added to the buffer when undissolved sumatriptan appeared. […] The diamond symbol in FIG. 1 represents the average value between the lower and upper limit.

Percent Degradation After 1 month at 50° C. [1]: 0.64%
Molecule: HPMC

Percent Degradation After 1 month at 50° C. [1]: 0.07%
Molecule: Xanthan Gum

Percent Degradation After 1 month at 50° C. [1]: 0.49%
Molecule: Tween ™ 80

pH of solutions [2]: 4.5-5 | degradation [3]: 1.5% | oxidation impurity (chromatogram) ([4]; 25% v/v H2O2 solution at room temperature for 2 hours): formation of the oxidation impurity | oxidation impurity (HPLC) ([4]; aqueous solution at 50° C. for two weeks): formed upon incubation | oxidation impurity (chromatogram) ([4]; solid powder at 4° C.): not present | oxidation impurity (chromatogram) ([4]; solid powder at 50° C.): not present | solubility (physchem; aqueous buffer, apparent solubility): 100 to 115 mg/mL | solubility (physchem; pH 2, simulated gastric fluid, Apparent solubility, Lower Limit): 149 mg/mL | solubility (physchem; pH 2, simulated gastric fluid, Apparent solubility, Upper Limit): 162 mg/mL | solubility (physchem; pH 5, aqueous buffer, Apparent solubility, Lower Limit): 110 mg/mL | solubility (physchem; pH 5, aqueous buffer, Apparent solubility, Upper Limit): 120 mg/mL | solubility (physchem; pH 7, aqueous buffer, Apparent solubility, Lower Limit): 138 mg/mL | solubility (physchem; pH 7, aqueous buffer, Apparent solubility, Upper Limit): 151 mg/mL | solubility (physchem; pH 9, aqueous buffer, Apparent solubility, Lower Limit): 138 mg/mL | solubility (physchem; pH 9, aqueous buffer, Apparent solubility, Upper Limit): 140 mg/mL
Molecule: CNS(=O)(=O)Cc1ccc2[nH]cc(CCN(C)C)c2c1.O=C(O)CCC(=O)O [Sumatriptan succinate, 3-[2-(dimethylamino)ethyl]-N-methyl-indole-5-methanesulfonamide succinate (1:1)]
bioavailability ([5]; 6 mg subcutaneous injection): 97% | bioavailability ([5]; 20 mg nasal spray): 17% | Tmax ([5]; 50 mg tablet): 2.5 h | elimination half-life ([5]; in vivo): about 2 hours | Tmax ([5]; nasal spray): 1 h | absolute bioavailability ([5]; oral administration): about 14% | Tmax ([5]; subcutaneous injection): 0.2 h

Percent Degradation After 1 month at 50° C. [1]: 14%
Molecule: PEG 400
